Converted amounts (≈) assume the structure as drawn.

These results are taken from patent publication EP3959200B1, “NEW TRIAZOLE AND TRIAZOLOTHIADIAZINE DERIVATIVES EXERTING CYTOTOXIC AND APOPTOTIC EFFECTS ON A549 CELLS THROUGH AKT INHIBITION” (Anadolu Universitesi, priority 2020, dated 2022).

For one data set, the system named is K562 cell line. To be noted: cited from earlier work.
Data set [1] concerns kidney cancer (OU-31) cell line. Also noted: concentration or dose not given beside the values. To be noted: cited from earlier work.
Data set [2] concerns ovarian carcinoma (SKOV3). To be noted: cited from earlier work.
For data set [3], the system named is human lung adenocarcinoma (A549). Conditions: cited from earlier work.
Data set [4] has as its system breast adenocarcinoma (MCF-7). Conditions: cited from earlier work.
The test system of a further data set is A549 cells. Kind of data set: FITC Annexin V/PI apoptosis detection by flow cytometry. The class given is cell-based, human. To be noted: for Early apoptotic cells % / Late apoptotic cells % / Necrosis % / Viable cells% / apoptotic activity: at IC50 concentrations; for apoptotic activity: early plus late apoptotic cells; for apoptosis induction: flow cytometry, result in words. Here is the method:
The cells incubated with the compounds were centrifuged at 400 × g for 5 minutes in labeled tubes and washed twice with 1xPBS. Then, the cells were suspended in 1×Annexin-V binding solution at 1×10^6 cells/mL and 100 µL of this cell solution was taken and transferred to tubes. The cells were treated with 5 µL Annexin V FITC and 5 µL of propidium iodide (PI) dyes. Then, the cells were kept at room temperature in the dark for 15 minutes to allow the dye to bind. 400 µL of 1×Annexin-V binding cell solution was transferred to flow cytometry tubes and the amount of early and late apoptotic cells was determined relative to the positive control using the BD FACSAria flow cytometer FACSDiva version 6.1.1 software.
(In general: A flow cytometer gives signals particle by particle.)

Data set [5] relates to NIH/3T3 mouse embryonic fibroblast cells. As to the kind of experiment: MTT cytotoxicity assay. In kind it is cell-based. To be noted: Mus musculus, NIH3T3, 24 hours, read-out: IC50 values NIH/3T3 cell line. On the procedure:
(§1) In order to be used from this stock, the concentrations ranging from 0.12 to 500 µg/mL (with the highest DMSO ratio of 0.1%) were prepared.
NIH/3T3 mouse embryonic fibroblast cells (ATCC® CRL-1658™) were grown in DMEM medium supplemented with 10% fetal bovine serum, 1% penicillin/streptomycin, in an incubator with carbon dioxide, in a culture medium at 37°C at 95% relative humidity.
(§2) MTT protocol was applied to determine cell viability. […] At the end of the incubation period, 20 µL of MTT dye (5 mg/mL) was added into each well, and the cells were incubated for an additional 4 hours at 37°C. After this process, MTT dye was removed from the cells, 200 µL of DMSO was added to each well and left to incubate for 10 minutes. Color change was detected at 540 nm in the ELx808-IU Bio-Tek plate reader. Inhibition% values were determined for each concentration of compounds. Inhibitory concentration 50 (IC50) values of the compounds were calculated by drawing a dose-response curve with their concentrations against these values. All experiments were carried out in triplicate. The results were given as mean±standard deviation. Inhibition% = 100−[(ODtest compound−ODblank/ODsolvent control−ODblank)×100] [formula]
A general note: Tetrazolium assays rely on reduction of a dye to a coloured formazan, in cell work by metabolically active cells.

The subject of data set [6] is A549 human lung adenocarcinoma cells. As to the kind of experiment: MTT cytotoxicity assay. Conditions: for IC50: Homo sapiens, A549, MTT, 24 hours, read-out: IC50 values A549 cell line; for SI values: SI= IC50 for NIH/3T3 cell line / IC50 for A549 cell line. The class given is cell-based. On the procedure: as §1
A549 human lung adenocarcinoma cells (ATCC® CCL-185™) were grown in RPMI 1640 medium supplemented with 10% fetal bovine serum, 1% penicillin/streptomycin, in an incubator with carbon dioxide, in a culture medium at 37°C at 95% relative humidity.
as §2
Selective index (SI) values were determined using the following formula. SI […] IC50 for NIH/3T3 cell line/IC50 for A549 cell line [formula]

For another data set, the system named is Akt. Kind of data set: Akt activity assay (Akt colorimetric in cell ELISA). In kind it is cell-based, human. To be noted: for Akt inhibitory effects: result in words. On the procedure: Briefly, the media was removed from the wells and 100 µL of 4% formaldehyde was added. The plate was incubated for 15 minutes in a fume hood. Formaldehyde was removed and the plate was washed twice with 1X […] solution (TBS) to 100 µL/well. 1X TBS was removed and 100 µL of 1X permeabilization buffer was added to each well and left at room temperature for 15 minutes. After removing the 1X permeabilization buffer, the wells were washed once with 100 µL of 1X TBS. 1X TBS was removed and 100 µL of the quenching solution was added to the wells and left at room temperature for 20 minutes. Then, this solution was removed. The plate was washed once with 1X TBS, 100 µL of blocking buffer was added to the wells and left at room temperature for 30 minutes. At the end of this period, the blocking buffer was removed and 50 µL of primary antibody was added to the wells. The plate was closed with a sealer and incubated overnight at 4°C. The primary antibody was removed and plate wells were washed three times with 100 µL of wash buffer. After removing the wash buffer, 100 µL of diluted horseradish peroxidase (HRP) conjugate was added to the wells. It was incubated for 30 minutes at room temperature. After removing this conjugate, 100 µL of 3,3',5,5'-tetramethylbenzidine (TMB) stop solution was added and absorbance was measured at 450 nm for 30 minutes. The experiment was carried out in triplicate. The values of the blank wells were subtracted from the values of the untreated control and treated cells. The Akt activity% was determined as the relative absorbance of treated versus untreated control cells.
(An ELISA detects its analyte on a solid surface through an enzyme-linked reagent.)

For the molecule `Fc1ccccc1NCn1nc(C23CC4CC(CC(C4)C2)C3)[nH]c1=S` [5-(adamantan-1-yl)-2-[((2-fluorophenyl)amino)methyl]-2,4-dihydro-3H-1,2,4-triazole-3-thione], the IC50 in the data set on K562 cell line is 27700 ± 2460 nM.

With `O=C(CSc1nnc2n1N=C(c1ccc(Br)cc1)CS2)c1ccc(Br)cc1` [1-(4-bromophenyl)-2-((6-(4-bromophenyl)-7H-[1,2,4]triazolo[3,4-b][1,3,4]thiadiazine-3-yl)thio)ethanone], in data set [1], the growth was 46.76% and the inhibition is recorded as 53.24%.

On to `COc1cc([C@@H]2c3cc4c(cc3[C@@H](O[C@@H]3O[C@@H]5CO[C@@H](C)O[C@H]5[C@H](O)[C@H]3O)[C@H]3COC(=O)[C@H]23)OCO4)cc(OC)c1O` [etoposide], for which the IC50 in data set [2] is 2300 ± 120 nM; in data set [3], 2990 ± 220 nM; in [4] it was 1890 ± 160 nM.

Consider `S=c1[nH]c(C23CC4CC(CC(C4)C2)C3)nn1CNc1ccccc1Cl` [5-(adamantan-1-yl)-2-[((2-chlorophenyl)amino)methyl]-2,4-dihydro-3H-1,2,4-triazole-3-thione], for which, in the data set on K562 cell line, the IC50 was 27000 ± 5350 nM.

With `O=C(CSc1nnc2n1N=C(c1ccc(F)cc1)CS2)c1ccc(F)cc1` [1-(4-fluorophenyl)-2-((6-(4-fluorophenyl)-7H-[1,2,4]triazolo[3,4-b][1,3,4]thiadiazine-3-yl)thio)ethanone], in [1], the growth is 47.42% and the inhibition is recorded as 52.58%.

On to `COc1cc(-c2nnc3n2N=C(c2ccc(C)cc2)CS3)cc(OC)c1OC` [6-(p-tolyl)-3-(3,4,5-trimethoxyphenyl)-7H-[1,2,4]triazolo[3,4-b][1,3,4]thiadiazine], for which the values for the IC50 in data set [2], in [3] and in data set [4] were 3430 ± 330 nM, 600 ± 20 nM and 2750 ± 50 nM, respectively.

In the case of `c1ccc(C2=Nn3c(CCc4cccnc4)nnc3SC2)cc1` [Compound 2a, 6-Phenyl-3-(2-(pyridine-3-yl)ethyl)-7H-[1,2,4]triazolo[3,4-b][1,3,4]thiadiazine], in the data set on A549 cells, the “Early apoptotic cells %” value is recorded as 1.7%, the “Late apoptotic cells %” value was determined as 2.7%, the Necrosis % is reported as 0.7% and the Viable cells% is listed as 95.0%. In addition, the IC50 in data set [5] is > 500 µg/mL. For the same molecule, in data set [6], the IC50 was determined as 7.23 ± 1.62 µg/mL (≈ 22.5 µM) and the SI values is on record as >69.16. For the same molecule, the Inhibition % in the data set on Akt (1.81 µg/mL, 24 hours) was found to be 8.75±2.77%. In the data set on Akt (3.62 µg/mL, 24 hours), this molecule gave an Inhibition % of 7.69±2.91%. In addition, in the data set on Akt (7.23 µg/mL, 24 hours), the Inhibition % is 35.45±5.82%. Besides, the Akt inhibitory effects result in the data set with Akt was “did not show significant Akt inhibitory effects”.

Consider `c1cncc(CCc2nnc3n2N=C(c2ccc4ccccc4c2)CS3)c1` [Compound 2j, 6-(Naphthalene-2-yl)-3-(2-(pyridine-3-yl)ethyl)-7H-[1,2,4]triazolo[3,4-b][1,3,4] thiadiazine], for which, in the data set on A549 cells, the “Early apoptotic cells %” value is 1.0%, the “Late apoptotic cells %” value is 3.6%, the Necrosis % turned out to be 5.0% and the Viable cells% was found to be 90.3%. Besides, the IC50 in [5] was found to be 6.66 ± 1.04 µg/mL (≈ 17.9 µM). Moreover, in data set [6], the IC50 was found to be 4 µg/mL (≈ 10.8 µM) and the SI values came out at 1.67. The molecule further displayed an Inhibition % in the data set with Akt (2.0 µg/mL, 24 hours) of 17.80±2.08%. In the data set on Akt (4.0 µg/mL, 24 hours), this molecule had an Inhibition % of 48.23±7.29%. Moreover, in the data set with Akt, the Akt inhibitory effects result was “did not show significant Akt inhibitory effects”.

Turning to `Nn1c(CCc2cccnc2)nnc1SCC(=O)Nc1nc2ccc(F)cc2s1` [Compound 3c, 2-((4-Amino-5-(2-(pyridine-3-yl)ethyl)-4H-1,2,4-triazole-3-yl)thio)-N-(6-fluorobenzothiazole-2-yl)acetamide], in the data set on A549 cells, the “Early apoptotic cells %” value was 0.5%, the “Late apoptotic cells %” value was determined as 3.7%, the Necrosis % is reported as 4.0% and the Viable cells% was 91.8%. Also, the IC50 in [5] amounted to 170 ± 17.3 µg/mL (≈ 396 µM). Further, in data set [6], the IC50 turned out to be 0.27 ± 0.02 µg/mL (≈ 0.629 µM) and the SI values is on record as 629.63. In the data set with Akt (0.07 µg/mL, 24 hours), this molecule gave an Inhibition % of 15.28±5.56%. The molecule also had an Inhibition % in the data set on Akt (0.14 µg/mL, 24 hours) of 36.64±13.39%. In the data set on Akt (0.27 µg/mL, 24 hours), this molecule returned an Inhibition % of 39.84±6.49%. In addition, in the data set on Akt, the Akt inhibitory effects result is “did not show significant Akt inhibitory effects”.

Consider `Cc1ccccc1NCn1nc(C23CC4CC(CC(C4)C2)C3)[nH]c1=S` [5-(adamantan-1-yl)-2-[(o-tolylamino)methyl]-2,4-dihydro-3H-1,2,4-triazole-3-thione], for which the IC50 in the data set with K562 cell line is 25400 ± 890 nM.

Take `Cc1ccc2nc(NC(=O)CSc3nnc(CCc4cccnc4)n3N)sc2c1` [Compound 3f, 2-((4-Amino-5-(2-(pyridine-3-yl)ethyl)-4H-1,2,4-triazole-3-yl)thio)-N-(6-methylbenzothiazole-2-yl)acetamide]: in the data set on A549 cells, the “Early apoptotic cells %” value was found to be 1.9%, the “Late apoptotic cells %” value worked out at 7.7%, the Necrosis % was found to be 5.8% and the Viable cells% is given as 84.6%. In addition, in the data set on A549 cells, the apoptotic activity is 9.6% and the apoptosis induction result is “induce apoptosis”. Moreover, the IC50 in data set [5] is > 500 µg/mL. Further, in [6], the IC50 was 6.5 ± 0.5 µg/mL (≈ 15.3 µM) and the SI values is >76.92. In addition, in the data set with Akt (3.25 µg/mL, 24 hours), the Inhibition % was 37.59±9.46%. This molecule also registered an Inhibition % in the data set with Akt (6.50 µg/mL, 24 hours) of 40.29±11.27%. Further, the Akt inhibitory effects result with Akt is given as “did not show significant Akt inhibitory effects”.

With `O=[N+]([O-])c1ccc(C2=Nn3c(CCc4cccnc4)nnc3SC2)cc1` [Compound 2b, G-(4-Nitrophenyl)-3-(2-(pyridine-3-yl)ethyl)-7H-[1,2,4]triazolo[3,4-b] [1,3,4]thiadiazine], in the data set with A549 cells, the “Early apoptotic cells %” value came out at 2.4%, the “Late apoptotic cells %” value worked out at 2.4%, the Necrosis % is 2.5% and the Viable cells% was determined as 94.6%. Also, the IC50 in data set [5] was > 500 µg/mL. Further, in [6], the IC50 stood at 8.13 ± 0.81 µg/mL (≈ 22.2 µM) and the SI values was >61.50. Also, the Inhibition % with Akt (4.07 µg/mL, 24 hours) is 34.75±2.25%. The molecule also showed an Inhibition % in the data set on Akt (8.13 µg/mL, 24 hours) of 33.16±14.16%. For the same molecule, the Akt inhibitory effects entry in the data set with Akt is given as “did not show significant Akt inhibitory effects”.

Regarding `Fc1ccc(C2=Nn3c(CCc4cccnc4)nnc3SC2)cc1` [Compound 2c, 6-(4-fluorophenyl)-3-(2-(pyridine-3-yl)ethyl)-7H-[1,2,4]triazolo[3,4-b][1,3,4]thiadiazine], in the data set with A549 cells, the “Early apoptotic cells %” value was found to be 1.8%, the “Late apoptotic cells %” value is on record as 6.0%, the Necrosis % is reported as 4.6% and the Viable cells% is recorded as 87.6%. Also, in the data set with A549 cells, the apoptotic activity stood at 7.8% and the apoptosis induction entry is “induce apoptosis”. The IC50 in [5] was > 500 µg/mL. In data set [6], the IC50 was found to be 11.8 ± 2.25 µg/mL (≈ 34.9 µM) and the SI values is >42.27. The Inhibition % in the data set with Akt (2.95 µg/mL, 24 hours) came out at 54.17±26.41%. Further, the Inhibition % in the data set on Akt (5.92 µg/mL, 24 hours) came to 73.98±8.55%. In the data set with Akt (11.83 µg/mL, 24 hours), this molecule returned an Inhibition % of 82.60±2.88%. Moreover, the “IC50 value (Akt inhibitory effects)” value in the data set on Akt (24 hours) is 2.95 ± 0.05 µg/mL (≈ 8.69 µM).

The term inhibition denotes the share of the control response that was lost under treatment.
